Values quoted from earlier work as cited in patent US20080044468A1, “Processes For The Preparation Of Oral Dosage Formulations Of Modafinil” (priority 2002, published 2008).

Settings: background statement

**Q.** Which Solubility in water does the source give for `NC(=O)C[S+]([O-])C(c1ccccc1)c1ccccc1` (stereo not shown) [modafinil] here?
**A.** less than 1 mg/ml
